In test [1] the target is T1, human B1R receptor (bradykinin 1 receptor) (Homo sapiens, UniProt P46663).
T1 construct: host or cells: CHO K1 cells (hB1R cells)
T1 sequence (P46663 1-353): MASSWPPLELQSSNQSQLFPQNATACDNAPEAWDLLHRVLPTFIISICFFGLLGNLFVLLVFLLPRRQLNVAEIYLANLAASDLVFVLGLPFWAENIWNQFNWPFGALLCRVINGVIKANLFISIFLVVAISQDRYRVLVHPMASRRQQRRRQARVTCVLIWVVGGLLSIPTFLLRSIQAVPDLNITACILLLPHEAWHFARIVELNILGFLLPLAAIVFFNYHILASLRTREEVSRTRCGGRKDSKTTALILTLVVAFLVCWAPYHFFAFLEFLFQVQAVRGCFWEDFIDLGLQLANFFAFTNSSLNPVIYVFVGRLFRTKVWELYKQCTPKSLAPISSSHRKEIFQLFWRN
Nature of the test: FLIPR Ca2+ assay (Fluo-4) on CHO K1 cells stably transfected with the human B1R gene; % activation and % inhibition at 10 μM. In kind it is cell-based. The note with it: CHO-K1, test substance 10 μM; CHO K1 hB1R cells; Ca2+ inflow after 0.5 nM Lys-Des-Arg9-bradykinin; read-out: B1R antagonism, human [10 μM] % inhibition. In a few lines:
(§1)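 CHO K1 cells stably expressing human or rat B1R, Fluo-4 loaded, read by FLIPR (peak fluorescence). Compound at 10 µM first gives % activation versus agonist; after 10 min, agonist (human: 0.5 nM Lys-Des-Arg9-bradykinin; rat: 100 nM Des-Arg9-bradykinin) gives % inhibition relative to maximal inhibition.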

The target of test [2] is T2, B1R receptor of the rat (bradykinin 1 receptor) (Rattus norvegicus, UniProt P97583).
T2 construct: host or cells: CHO K1 cells (rB1R cells)
T2 sequence (P97583 1-337): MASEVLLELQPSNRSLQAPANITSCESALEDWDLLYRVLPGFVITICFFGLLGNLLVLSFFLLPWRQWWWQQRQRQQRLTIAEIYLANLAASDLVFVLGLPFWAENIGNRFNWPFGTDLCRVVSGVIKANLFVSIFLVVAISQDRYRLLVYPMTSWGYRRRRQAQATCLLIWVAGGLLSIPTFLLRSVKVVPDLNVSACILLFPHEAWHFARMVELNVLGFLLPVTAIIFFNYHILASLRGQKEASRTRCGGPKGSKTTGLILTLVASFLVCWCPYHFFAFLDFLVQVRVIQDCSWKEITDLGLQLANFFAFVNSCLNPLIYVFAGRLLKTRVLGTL
Briefly: FLIPR Ca2+ assay (Fluo-4) on CHO K1 cells stably transfected with the B1R gene of the rat; % activation and % inhibition at 10 μM. In kind it is cell-based. As to conditions: CHO-K1, test substance 10 μM; CHO K1 rB1R cells; Ca2+ inflow after 100 nM Des-Arg9-bradykinin; read-out: B1R antagonism, rat [10 μM] % inhibition. In a few lines: as §1

Here are results for 10 compounds from patent US8580965B2, “Substituted sulfonamide compounds” (Gruenenthal GmbH, priority 2006, dated 2013).

The inhibition is the relative decrease from the control value, in per cent. On to `O=C(COCC1CCCCN1S(=O)(=O)c1csc2ccccc12)N1CCC(O)(Cc2ccccc2)CC1` (centres unmarked) [Example 274, 2-((1-(benzo[b]thiophen-3-ylsulfonyl)piperidin-2-yl)methoxy)-1-(4-benzyl-4-hydroxypiperidin-1-yl)ethanone], for which the inhibition at 10 µM in test [1] came out at 96.4%; in test [2], 76%.

As to `Cc1cc(S(=O)(=O)N(C)CCOCC(=O)N2CCC(O)(c3ccccc3)CC2)c(C)cc1Cl` [Example 152, 4-chloro-N-(2-(2-(4-hydroxy-4-phenylpiperidin-1-yl)-2-oxoethoxy)ethyl)-N,2,5-trimethylphenylsulfonamide], the inhibition at 10 µM in test [1] is 81.6%; in test [2] it was 77.2%.

As to `CN(CCOCC(=O)N1CCC(O)(c2cccc(C(F)(F)F)c2)CC1)S(=O)(=O)c1cc(Cl)sc1Cl` [Example 262, 2,5-dichloro-N-(2-(2-(4-hydroxy-4-(3-(trifluoromethyl)phenyl)piperidin-1-yl)-2-oxoethoxy)ethyl)-N-methylthiophene-3-sulfonamide], the inhibition at 10 µM in test [1] turned out to be 73.6%; in test [2] it was 94.2%.

Regarding `COc1cc(C)c(S(=O)(=O)N2CCCC2COCC(=O)N2CCC(O)(c3cccc(C(F)(F)F)c3)CC2)c(C)c1` (centres unmarked) [Example 217, 1-(4-hydroxy-4-(3-(trifluoromethyl)phenyl)piperidin-1-yl)-2-((1-(4-methoxy-2,6-dimethylphenylsulfonyl)pyrrolidin-2-yl)methoxy)ethanone], the results for the inhibition at 10 µM in test [1] and in test [2] were 105% and 99.9%, respectively.

For `O=C(COCC1Cc2ccccc2CN1S(=O)(=O)c1ccc(Cl)c(Cl)c1)N1CCC(O)(c2ccccc2)CC1` (centres unmarked) [Example 78, 2-((2-(3,4-dichlorophenylsulfonyl)-1,2,3,4-tetrahydroisoquinolin-3-yl)methoxy)-1-(4-hydroxy-4-phenylpiperidin-1-yl)ethanone], the inhibition at 10 µM was 13.7% in test [1] and 12.7% in test [2].

`O=C(COC1CCN(S(=O)(=O)c2c(Cl)cc(Cl)cc2Cl)C1)N1CCC(O)(Cc2ccccc2)CC1` (centres unmarked) [Example 109, 1-(4-benzyl-4-hydroxy-piperidin-1-yl)-2-[1-(2,4,6-trichloro-phenylsulfonyl)-pyrrolidin-3-yloxy]-ethanone]: the inhibition at 10 µM in test [1] was 103%; in test [2] it was 82.5%.

Regarding `Cc1cc(C)c(S(=O)(=O)N2CCCCC2COCC(=O)N2CCC(O)(Cc3ccccc3)CC2)c(C)c1` (centres unmarked) [Example 67, 1-(4-benzyl-4-hydroxy-piperidin-1-yl)-2-[1-(2,4,6-trimethyl-phenylsulfonyl)-piperidin-2-ylmethoxy]-ethanone], the inhibition at 10 µM stood at 55.4% in test [1] and 86.5% in test [2].

On to `O=C(COCC1CCCCN1S(=O)(=O)c1c(Cl)cccc1Cl)N1CCC(O)(c2cccc(C(F)(F)F)c2)CC1` (centres unmarked) [Example 235, 2-((1-(2,6-dichlorophenylsulfonyl)piperidin-2-yl)methoxy)-1-(4-hydroxy-4-(3-(trifluoromethyl)phenyl)piperidin-1-yl)ethanone], for which the inhibition at 10 µM was found to be 103% in test [1] and 99.9% in test [2].

`COc1cc(C)c(S(=O)(=O)N(C)CCOCC(=O)N2CCC(O)(Cc3ccncc3)CC2)c(C)c1` [Example 280, N-(2-(2-(4-hydroxy-4-(pyridin-4-ylmethyl)piperidin-1-yl)-2-oxoethoxy)ethyl)-4-methoxy-N,2,6-trimethylphenylsulfonamide]: the inhibition at 10 µM in test [1] and in test [2] was 100% in each case.

As for `O=C(COCC1CCN(S(=O)(=O)c2c(Cl)cc(Cl)cc2Cl)C1)N1CCC(O)(Cc2ccccc2)CC1` (centres unmarked) [Example 248, 1-(4-benzyl-4-hydroxypiperidin-1-yl)-2-((1-(2,4,6-trichlorophenylsulfonyl)pyrrolidin-3-yl)methoxy)ethanone], the inhibition at 10 µM in test [1] amounted to 40%; in test [2], 85.1%.
